Measured values reported in patent US20170246129A1, “COMPOSITION USING GUANIDINE COMPOUND FOR SUPPRESSING TRANSFORMING GROWTH FACTOR (TGF)-beta” (Peking University Third Hospital, priority 2016, published 2017).
Counter-ions that a name gives are not always drawn. Like-named read-outs stand apart in the source and are kept apart here.

What was measured:
[1] = system: TGFβ1 induced phosphorylated Smad3 (p-Smad3); experiment: Western blotting of TGFβ1 induced phosphorylated Smad3 in 3T3 cells; assay type: cell-based, mouse; conditions: compound 1 mmol/L premixed with TGF-β1 (5 ng/mL) for 2 h, 3T3 cells treated 30 min, FIG. 9
Procedure: 2: Moroxydinehydrochloride (dissovled in ddH2O, 1 mmol/L); 3: Phenylbiguanide (dissolved in DMSO, 1 mmoL/L); 4: 1-(2,3-Dichlorophenyl) biguanide hydrochloride (dissolved in DMSO, 1 mmoL/L); 5: 1,3-Di(o-tolyl)guanidine (dissolved in DMSO, 1mmoL/L); 6: Buformin hydrochloride (dissolved in EtOH, 1 mmol/L). These compounds and TGF-β1 (5 ng/mL) were premixed for 2 h separately and then 3T3 cells were treated with the mixture for 30 min prior to sample collection. […] Bicinchoninic acid reagents were used to measure the protein concentration. Equal amounts of proteins were separated by SDS-PAGE and transferred to polyvinylidene difluoride membranes. The blots were immunoreacted with primary antibodies and secondary antibodies conjugated with horseradish peroxidase. […] GAPDH antibodies were purchased from Santa Cruz Biotechnology (Santa Cruz, Calif., USA). Protein bands were visualized by enhanced chemiluminescence detection and the intensity was quantified by use of Image-J software.

[2] = target: T1, [125I]-TGFβ1 binding to its receptor in 3T3 mouse fibroblasts (Homo sapiens, UniProt P01137); experiment: [125I]-TGFβ1 binding assay; conditions: printed as log[IC50], 50 pM [125I]-TGFβ1, 4 h at 4° C., four independent experiments, read-out: log[IC50] of [125I]-TGFβ1 binding inhibition (converted)
T1 construct: endogenous in cells; host or cells: 3T3 mouse fibroblasts
T1 sequence (P01137 279-390 limits assumed): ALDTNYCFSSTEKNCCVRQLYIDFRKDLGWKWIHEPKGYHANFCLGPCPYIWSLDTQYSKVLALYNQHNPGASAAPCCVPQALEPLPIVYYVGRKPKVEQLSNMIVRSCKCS
Procedure: 3T3 mouse fibroblasts were seeded in a 24 well-plate and cultured in DMEM supplemented with 10% FBS and antibiotics (100 U/mL penicillin-streptomycin). […] After 4 h at 4° C., the medium was removed and cells were washed five times with ice-cold binding buffer (50 mM HEPES, 128 mM NaCl, 5 mM KCl, 5 mM MgSO4, and 1.2 mM CaCl2). The cells were then solubilized using binding buffer containing 1% Triton X-100 and the radioactivity was measured. Non-specific binding was determined in the presence of an excess (10 nM) of unlabeled TGFβ1.

[3] = persons receiving the drug therapeutically, cited from earlier work
TGF-β1/TβRII = target: T2, TGF-β1/TβRII (Homo sapiens, UniProt P01137); experiment: AFM single-molecule force spectroscopy of TGF-β1-TβRII binding on HeLa cells
T2 construct: expressed in transfected cells; host or cells: HeLa
T2 sequence (P01137 279-390 limits assumed): as above
Procedure: The present invention investigated the binding force and the binding probability between TGF-β1 and TβRII on live cells using AFM-based single-molecule force spectroscopy. TGF-β1-modified AFM tips (type: NP-10, Bruker, Santa Barbara, Calif., USA) were prepared as followed. The spring constants of the tips, calibrated by the thermal fluctuation method, were in the range of 0.025-0.045 N/m. The tips were first cleaned and hydroxized through the treatment with chloroform, HF acid, alkaline solution (NH4OH/H2O2/H2O) 1:1:5, v/v) and piranha solution (98% H2SO4/H2O2) 7:3, v/v), respectively, to generate Si-OH on the wafers. Then they were transferred to a solution of 1.0% (v/v) MPTMS in toluene, incubated for 2 h at room temperature, and rinsed thoroughly with toluene to be modified with —SH groups. […]
Hela cells were transfected with the TβRII-GFP plasmid for 24 h, and the force measurements were performed on a PicoSPM II system with a PicoScan 3000 controller and a large scanner (Agilent, Santa Clara, Calif., USA). The AFM scanner was mounted on an inverted fluorescence microscope (Olympus IX71, Japan). […] All of the force curves were measured with the contact mode at room temperature using a soft cantilever (0.06 N m-1). […] The force curves were recorded using PicoScan 5 software (Molecular Imaging, Tempe, Ariz., USA) and analyzed using a program in MATLAB (MathWorks Corp., Natick, Mass., USA.).

TGF-β1 = TGF-β1 (Homo sapiens, UniProt P01137); experiment: Surface plasmon resonance (SPR)-based assay; conditions: Biacore T200, 25° C., TGF-β1 on CM5 chip, steady-state single site binding model
Sequence of TGF-β1 (P01137 279-390 limits assumed): as above
Procedure: Experiments were performed at 25° C. using a Biacore T200 and the data were analyzed using Biacore T200 evaluation software 2.0 (GE Healthcare, Stockholm, Sweden). […] The steady-state values were calculated from the sensorgrams and plotted against the concentrations. The data were fit to a single site binding model to calculate the KD.

TβRII-GFP on HeLa cells = experiment: Single-molecule fluorescence imaging (TIRFM) of TGF-β1-induced TβRII dimerization; assay type: cell-based; conditions: TGF-β1 10 ng/mL, 15 min at 37° C., FIG. 2D
Procedure: In the previous study, individual green fluorescent protein (GFP)-tagged TβRII molecules were imaged on the cell membrane by total internal reflection fluorescence microscopy (TIRFM) to study the receptor activation.
Single molecule fluorescence imaging was performed with objective-type total internal reflection fluorescence microscopy (TIRFM) using an inverted Olympus IX71 microscope equipped with a total internal reflective fluorescence illuminator'a, 100X/1.45NA Plan Apochromat TIR objective and an intensified CCD (ICCD) camera (Pentamax EEV 512×512 FT, Roper Scientific). Hela cells were transfected with TβRII-GFP plasmid for 4 h, washed, and then imaged in the serum-free and phenol red-free MEM under the fluorescence microscopy. GFP was excited at 488-nm by an argon laser (Melles Griot, Carlsbad, Calif.). Movies of 200-300 frames were acquired for each sample at a frame rate of 10 Hz. […] To analyze single-molecule fluorescence intensity and the photobleaching steps, regions of interest for bleaching analysis were selected as followed. Firstly, the background fluorescence was subtracted from the movie acquired from the fixed cells using rolling ball method in Image J software (National Institutes of Health). […] Finally, time courses and the integrated fluorescence intensity of regions which were selected according to the method above were extracted for photobleaching analysis. […]

Cc1ccccc1NC(=N)Nc1ccccc1C [1,3-Di(o-tolyl)guanidine]
effect on p-Smad3 induced by TGFβ1 [1]: attenuate

Cl.N=C(NN)NN [1,3-Diaminoguanidine monohydrochloride]
effect on p-Smad3 induced by TGFβ1 [1]: no effect

Cl.N=C(N)NC(=N)Nc1cccc(Cl)c1Cl [1-(2,3-Dichlorophenyl) biguanide hydrochloride]
effect on p-Smad3 induced by TGFβ1 [1]: no effect

CCCCNC(=N)NC(=N)N [buformin hydrochloride, Buformin hydrochloride]
effect on p-Smad3 induced by TGFβ1 [1]: attenuate

CN(C)C(=N)N=C(N)N [metformin, metformin hydrochloride]
IC50 [2]: 69.2 µM
Blood or plasma concentrations [3]: 1 to 4 µg/mL
Blood or plasma concentrations ([3]; conversion of μg/mL): 6 to 24 µM
binding force of TGF-β1 with TβRII (TGF-β1/TβRII; 50 μM, control 49.5±1.3, P>0.05): 49.3±1.4 pN
binding probability of TGF-β1 and TβRII (TGF-β1/TβRII; metformin 50 μM, control 21.7±3.5%): 9.9±1.2%
Kd (TGF-β1): 15.9 µM
percentage of TβRII dimers induced by TGF-β1 (TβRII-GFP on HeLa cells): inhibited the percentage of dimers induced by TGF-β1 in a dose-dependent manner

Cl.N=C(N=C(N)N)N1CCOCC1 [moroxydinehydrochloride]
effect on p-Smad3 induced by TGFβ1 [1]: no effect
